Drawing on EP2077105A1, “Ophthalmic Micellar Compositions with Enhanced Stability” (Novagali Pharma S.A., priority 2008, dated 2009), this text covers zeta potential for one molecule.

The series can be described thus: Zeta potential of emulsion surface. It counts as physicochemical. Conditions: 0.02% BAK and 0.002% CKC in emulsion. The text has this:
All the eye drops were supplied by Novagali Pharma (Evry, France) and were sterile with physiological pH and osmolality. The present Applicants chose to compare 0.02% BAK to 0.002% CKC since these two QAC concentrations confer equivalent positive charge to the emulsion surface (zeta potential around 20 mV).

The structures appear in SMILES notation.

For `CCCCCCCCCCCCCCCC[N+](C)(C)Cc1ccccc1` [Cetalkonium chloride, cetalkonium chloride], the zeta potential entry is “around 20 mV”.
